Data as given in US4921855A, “New Histidyl amino acid derivatives, and pharmaceutical composition comprising the same” (Fujisawa Pharmaceutical Co., Ltd., priority 1987, dated 1990).

Molecular target: T1, renin (Homo sapiens, UniProt P00797)
T1 construct: endogenous renin and angiotensinogen in plasma; from tissue; host or cells: pooled human plasma (EDTA) from male volunteers
T1 sequence (P00797 67-406): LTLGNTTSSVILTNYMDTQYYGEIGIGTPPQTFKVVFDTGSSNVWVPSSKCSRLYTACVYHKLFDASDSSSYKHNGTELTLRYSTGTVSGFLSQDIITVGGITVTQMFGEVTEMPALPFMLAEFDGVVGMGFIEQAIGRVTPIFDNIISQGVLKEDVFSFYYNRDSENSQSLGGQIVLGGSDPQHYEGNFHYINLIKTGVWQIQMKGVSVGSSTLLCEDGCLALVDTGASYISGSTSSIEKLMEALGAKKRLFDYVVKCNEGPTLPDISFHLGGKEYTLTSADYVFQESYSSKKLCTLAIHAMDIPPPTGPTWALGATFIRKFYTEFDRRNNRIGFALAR
Experiment: Inhibition of human plasma renin activity (angiotensin I formation, RIA)
Type: biochemical
Conditions: endogenous renin and angiotensinogen, pH 6.0, 37° C, 90 minutes, RIA of Ang I
Protocol: Human plasma was collected from male volunteers pretreated with no drugs and used as a pool. Disodium salt of ethylenediaminetetraacetic acid (EDTA) was used as the anticoagulant. Plasma renin activity was measured as the rate of angiotensin I (Ang I) formation after incubation (37° C) of the endogenous renin and angiotensinogen in plasma at pH 6.0. The incubation mixture contained 250 μl of plasma, 5 μl of (phenylmethyl)sulfonyl fluoride, 30 μl of buffer (sodium, potassium-phosphate, pH 6.0), and 15 μl of an appropriate concentration of test compound in 50% ethyl alcohol-water vehicle. The Ang I formed after 90 minutes of incubation was measured by radioimmunoassay (RIA) which was carried out with a commercial kit, RENCTK 100 (manufactured by Commissariat A L'energic Atomique). Samples were incubated in duplicate and each tube was measured in duplicate in the RIA. Percentage inhibition of plasma renin activity was calculated by comparing the amount of Ang I produced with and without a test compound. The concentration of test compound that inhibited plasma renin activity by 50% (IC50) was determined by Probit method.

For `CC(C)CC[C@H](O)[C@H](CC1CCCCC1)NC(=O)[C@H](Cc1c[nH]cn1)NC(=O)[C@H](Cc1ccccc1)OC(=O)N1CCOCC1` [(1)], the IC50 was 19 nM.

For `CC(C)CC[C@H](O)[C@H](CC1CCCCC1)NC(=O)[C@H](Cc1c[nH]cn1)N(C)C(=O)[C@H](Cc1ccccc1)OC(=O)N1CCOCC1` [(2)], the IC50 was 80 nM.

For `COC(=O)CN(C)C(=O)O[C@@H](Cc1ccccc1)C(=O)N(C)[C@@H](Cc1c[nH]cn1)C(=O)N[C@@H](CC1CCCCC1)[C@@H](O)CCC(C)C` [(3)], the IC50 was 33 nM.

For `COC(=O)[C@H]1CCCN1C(=O)O[C@@H](Cc1ccccc1)C(=O)N(C)[C@@H](Cc1c[nH]cn1)C(=O)N[C@@H](CC1CCCCC1)[C@@H](O)CCC(C)C` [(4)], the IC50 was 13 nM.

With `CC(C)CC[C@H](O)[C@H](CC1CCCCC1)NC(=O)[C@H](Cc1c[nH]cn1)N(C)C(=O)[C@H](Cc1ccccc1)OC(=O)N(C)CCC(=O)N(C)C` [(6)] the IC50 was 41 nM.

`CC(C)CC[C@H](O)[C@H](CC1CCCCC1)NC(=O)[C@H](Cc1c[nH]cn1)N(C)C(=O)[C@H](Cc1ccccc1)OC(=O)N(C)CC(=O)N(C)C` [(7)] showed an IC50 of 40 nM.

`CC(C)CC[C@H](O)[C@H](CC1CCCCC1)NC(=O)[C@H](Cc1c[nH]cn1)N(C)C(=O)[C@H](Cc1ccccc1)OC(=O)N(C)CC(=O)NCc1ccncc1` [(8)] was tested, and the IC50 was 46 nM.

In the case of `CC(C)CC[C@H](O)[C@H](CC1CCCCC1)NC(=O)[C@H](Cc1c[nH]cn1)N(C)C(=O)[C@H](Cc1ccccc1)OC(=O)N1CCC[C@@H]1C(=O)N(C)C` [(9)], the IC50 is reported as 30 nM.

`CC(C)CC[C@H](O)[C@H](CC1CCCCC1)NC(=O)[C@H](Cc1c[nH]cn1)N(C)C(=O)[C@H](Cc1ccccc1)OC(=O)N1CC(=O)N2CCC[C@H]2C1` [(10)] showed an IC50 of 21 nM.

Work on `CC(C)CC[C@H](O)[C@H](CC1CCCCC1)NC(=O)[C@H](Cc1c[nH]cn1)N(C)C(=O)[C@H](Cc1ccccc1)OC(=O)N1CCN(C)C(=O)C1` [(11)] yielded an IC50 of 19 nM.

`CC(C)CC[C@H](O)[C@H](CC1CCCCC1)NC(=O)[C@H](Cc1c[nH]cn1)N(C)C(=O)[C@H](Cc1ccccc1)OC(=O)N1CCNC(=O)C1` [(12)] was tested, and the IC50 was 29 nM.

`CC(C)CC[C@H](O)[C@H](CC1CCCCC1)NC(=O)[C@H](Cc1c[nH]cn1)N(C)C(=O)[C@H](Cc1ccccc1)OC(=O)N(C)CC(=O)OCC(C)C` [(13)] was tested, and the IC50 was 34 nM.

`CC(C)CC[C@H](O)[C@H](CC1CCCCC1)NC(=O)[C@H](Cc1c[nH]cn1)N(C)C(=O)[C@H](Cc1ccccc1)OC(=O)N(C)CC(=O)OCCc1ccccc1` [(14)] gave an IC50 of 48 nM.

Work on `CC(=O)COC(=O)CN(C)C(=O)O[C@@H](Cc1ccccc1)C(=O)N(C)[C@@H](Cc1c[nH]cn1)C(=O)N[C@@H](CC1CCCCC1)[C@@H](O)CCC(C)C` [(15)] yielded an IC50 of 33 nM.

With `CCOC(=O)CNC(=O)CCN(C)C(=O)O[C@@H](Cc1ccccc1)C(=O)N(C)[C@@H](Cc1c[nH]cn1)C(=O)N[C@@H](CC1CCCCC1)[C@@H](O)CCC(C)C` [(16)] the IC50 was 38 nM.

`CC(C)CC[C@H](O)[C@H](CC1CCCCC1)NC(=O)[C@H](Cc1c[nH]cn1)N(C)C(=O)[C@H](Cc1ccccc1)OC(=O)N(C)CCC(=O)NCc1ccccn1` [(17)] was tested, and the IC50 was 33 nM.

Molecule `CC(C)CC[C@H](O)[C@H](CC1CCCCC1)NC(=O)[C@H](Cc1c[nH]cn1)N(C)C(=O)[C@H](Cc1ccccc1)OC(=O)N(C)CCC(=O)N1CCSCC1` [(18)] has an IC50 of 30 nM.

`CC(C)CC[C@H](O)[C@H](CC1CCCCC1)NC(=O)[C@H](Cc1c[nH]cn1)NC(=O)[C@H](Cc1ccccc1)OC(=O)N(C)CCC(=O)N1CCOCC1` [(19)] showed an IC50 of 4.8 nM.

Molecule `CC(C)CC[C@H](O)[C@H](CC1CCCCC1)NC(=O)[C@H](Cc1c[nH]cn1)N(C)C(=O)[C@H](Cc1ccccc1)OC(=O)N(C)N(C)C(=O)OCC(C)C` [(20)] has an IC50 of 70 nM.

For `CC(C)CC[C@H](O)[C@H](CC1CCCCC1)NC(=O)[C@H](Cc1c[nH]cn1)N(C)C(=O)[C@H](Cc1ccccc1)OC(=O)N(C)N(C)C(=O)NC(C)C` [(21)], the IC50 was 43 nM.

For `CC(C)CC[C@H](O)[C@H](CC1CCCCC1)NC(=O)[C@H](Cc1c[nH]cn1)N(C)C(=O)[C@H](Cc1ccccc1)OC(=O)N1CCCN1C(=O)NC(C)C` [(22)], the IC50 was 63 nM.

Molecule `CC(C)CC[C@H](O)[C@H](CC1CCCCC1)NC(=O)[C@H](Cc1c[nH]cn1)N(C)C(=O)[C@H](Cc1ccccc1)OC(=O)N(C)CCN(C)C(=O)CC(C)C` [(25)] has an IC50 of 14 nM.

With `CC(C)CC[C@H](O)[C@H](CC1CCCCC1)NC(=O)[C@H](Cc1c[nH]cn1)N(C)C(=O)[C@H](Cc1ccccc1)OC(=O)N(C)CCC(=O)N(C)c1ccccc1` [(26)] the IC50 was 24 nM.

`CC(C)CC[C@H](O)[C@H](CC1CCCCC1)NC(=O)[C@H](Cc1c[nH]cn1)N(C)C(=O)[C@H](Cc1ccccc1)OC(=O)N(C)CCC(=O)N(C)CC(C)C` [(27)] showed an IC50 of 46 nM.

For `CC(C)CC[C@H](O)[C@H](CC1CCCCC1)NC(=O)[C@H](Cc1c[nH]cn1)N(C)C(=O)[C@H](Cc1ccccc1)OC(=O)N1CCCC(=O)C1` [(28)], the IC50 was 44 nM.

Work on `CC(C)CC[C@H](O)[C@H](CC1CCCCC1)NC(=O)[C@H](Cc1c[nH]cn1)N(C)C(=O)[C@H](Cc1ccccc1)OC(=O)N(C)CCCCC(=O)N(C)C(C)C` [(29)] yielded an IC50 of 16 nM.

`CC(C)CC[C@H](O)[C@H](CC1CCCCC1)NC(=O)[C@H](Cc1c[nH]cn1)N(C)C(=O)[C@H](Cc1ccccc1)OC(=O)N(C)CCCCC(=O)NC(C)C` [(30)] was tested, and the IC50 was 6.4 nM.

Molecule `CC(C)CC[C@H](O)[C@H](CC1CCCCC1)NC(=O)[C@H](Cc1c[nH]cn1)N(C)C(=O)[C@H](Cc1ccccc1)OC(=O)N(C)CCCN(C)C(=O)N1CCOCC1` [(31)] has an IC50 of 13 nM.

In the case of `CC(C)CC[C@H](O)[C@H](CC1CCCCC1)NC(=O)[C@H](Cc1c[nH]cn1)N(C)C(=O)[C@H](Cc1ccccc1)OC(=O)N(C)CCCC(=O)N1CCOCC1` [(32)], the IC50 is reported as 15 nM.

`CC(C)CC[C@H](O)[C@H](CC1CCCCC1)NC(=O)[C@H](Cc1c[nH]cn1)N(C)C(=O)[C@H](Cc1ccccc1)OC(=O)N(C)CCCC(=O)N(C)C(C)C` [(33)] showed an IC50 of 17 nM.

For `CC(C)CC[C@H](O)[C@H](CC1CCCCC1)NC(=O)[C@H](Cc1c[nH]cn1)N(C)C(=O)[C@H](Cc1ccccc1)OC(=O)N(C)CCCCN(C)C(=O)N1CCOCC1` [(34)], the IC50 was 7.5 nM.

Molecule `CC(C)CC[C@H](O)[C@H](CC1CCCCC1)NC(=O)[C@H](Cc1c[nH]cn1)N(C)C(=O)[C@H](Cc1ccccc1)OC(=O)N(C)CCCCC(=O)N1CCOCC1` [(35)] has an IC50 of 5.3 nM.

For `CC(C)CC[C@H](O)[C@H](CC1CCCCC1)NC(=O)[C@H](Cc1c[nH]cn1)NC(=O)[C@H](Cc1ccccc1)OC(=O)N(C)N(C)C(=O)N1CCOCC1` [(36)], the IC50 was 9.8 nM.

Molecule `CC(C)CC[C@H](O)[C@H](CC1CCCCC1)NC(=O)[C@H](Cc1c[nH]cn1)N(C)C(=O)[C@H](Cc1ccccc1)OC(=O)N(C)CCC(=O)N(C)CCc1ccccn1` [(37)] has an IC50 of 38 nM.

For `CC(C)CC[C@H](O)[C@H](CC1CCCCC1)NC(=O)[C@H](Cc1c[nH]cn1)N(C)C(=O)[C@H](Cc1ccccc1)OC(=O)N(C)CCC(=O)N1CC=CCC1` [(38)], the IC50 was 44 nM.

For `CC(C)CC[C@H](O)[C@H](CC1CCCCC1)NC(=O)[C@H](Cc1c[nH]cn1)N(C)C(=O)[C@H](Cc1ccccc1)OC(=O)N(C)CCC(=O)NC(C)C` [(39)], the IC50 was 37 nM.

For `CC(C)CC[C@H](O)[C@H](CC1CCCCC1)NC(=O)[C@H](Cc1c[nH]cn1)N(C)C(=O)[C@H](Cc1ccccc1)OC(=O)N(C)CCS(=O)(=O)C(C)C` [(40)], the IC50 was 57 nM.
